Assay results as given in patent US20090170945A1, “[…]” (priority 2007, published 2009).
Where a name gives a salt, the structure may show the parent alone.

Tests used:
[1] = Solubility in organic solvents; format: physicochemical
Source text: Pregabalin is obtainable by known methods, such as those described in EPB 641 330. […].
Suitable solvents include aliphatic cyclic ethers (e.g. dioxane), esters, and ketones (each of the ethers, esters, and ketones having 3 to 12 carbon atoms), and mixtures thereof as well as mixtures with water. The solubility may be enhanced by heating the reaction mixture. The presence of water enhances the solubility of both reagents (i.e., the pregabalin and the corresponding acid) substantially. Due to the high water solubility of the salt, however, the amount of water in the solvent should be minimized prior to the isolation of the salt (e.g. by evaporation of the solvent prior to the isolation), and preferably water is excluded from the solvent entirely. On the other hand, it was shown that the pregabalin salts of the invention are only slightly soluble in aliphatic ethers (such as diisopropyl ether and methyl tert. butyl ether) so that aliphatic ethers may be used as solvents in the salt forming reaction or as antisolvents for the isolation. Furthermore, alcohols as solvents are preferably avoided, as they may be esterified in the presence of the sulfonic acid to yield corresponding esters as byproducts. Thus alcoholic solvents and other non-inert solvents (e.g. solvents that will react under the salt forming conditions) are generally avoided.

[2] = cited from earlier work
[3] = Hygroscopicity of solid state salts under storage at ambient and humid conditions; format: physicochemical; settings: for hygroscopicity: storage at ambient and humid (40 C, 75% RH) conditions
Protocol: Hygroscopicity of solid state pregabalin salts that passed the salt formation criterion were tested under storage at ambient and humid (40 C, 75% RH) conditions.

[4] = Formation of impurities during salt formation (HPLC) and stability studies; settings: for stability / impurities during salt formation: HPLC after the salt formation
Protocol: Formation of impurities during the salt forming process was tested by analyzing the samples by HPLC after the salt formation. Salts were also subjected to stability studies in the solid state; particularly, they were subjected to storage at 40 C and 75% RH in the open dish.

[5] = per WO 96/40617; cited from earlier work
[6] = Thermogravimetric measurements

In the case of `CC(C)C[C@H](CN)CC(=O)O` [Pregabalin, S-(+)-4-amino-3-(2-methylpropyl)butanoic acid], the solubility in ethanol [1] is given as “poorly soluble”, the “pKa (acidic carboxy group)” value ([2]; first of the two printed pKa values) is given as 4.2 and the “pKa (basic amino group)” value ([2]; second of the two printed pKa values) is given as 10.6.
With `CC(C)C[C@H](CN)CC(=O)O.O=S(=O)(O)CCS(=O)(=O)O` [ethane-1,2-disulfonic acid salt] the hygroscopicity [3] was “very hygroscopic” and the “water uptake on storage in air” value ([3]; storage in air (R.T.) for 36 days) was “formation of a dihydrate”.
For `CC(C)C[C@H](CN)CC(=O)O.O=S(=O)(O)c1cccc2c(S(=O)(=O)O)cccc12` [napadisylate, pregabalin 1,5-naphthalene disulfonate], the “solid state stability during prolonged storage” value ([4]; 40 C and 75% RH, open dish) was “unstable” and the “stability / impurities during salt formation” value [4] was “stable”.
In the case of `CC(C)C[C@H](CN)CC(=O)O` [pregabalin hydrochloride], the hygroscopicity [3] is reported as “liquefied”.
For `CC(C)C[C@H](CN)CC(=O)O.O=C(O)[C@@H](O)c1ccccc1` [pregabalin mandelate, Pregabalin (S)-mandelate], the “stability in aqueous solutions” value ([4]; aqueous solution, lactam impurity) is listed as “unstable” and the “hydrolysis in water to free pregabalin” value [5] is listed as “easily hydrolyzes in water”.
For “Pregabalin Benzene Sulfonate [pregabalin besylate]”, the hygroscopicity [3] was “non-hygroscopic”, the “stability in solid state and in solution (overall statement)” value [4] was “stable in both the solid state and in solution” and the “stability / impurities during salt formation” value [4] was “stable”. The “thermal stability (thermogravimetry), stable up to” value [6] was 160-170 °C.
For “Pregabalin p-toluene Sulfonate [pregabalin tosylate]”, the “stability in solid state and in solution (overall statement)” value [4] was “stable in both the solid state and in solution”, the “stability / impurities during salt formation” value [4] was “stable” and the “thermal stability (thermogravimetry), stable up to” value [6] was 160-170 °C.
For fumarate, the “stability / impurities during salt formation” value [4] was “formed with by-products”.
For maleate, the “stability / impurities during salt formation” value [4] was “formed with by-products”.
With pregabalin mesylate the “stability / impurities during salt formation” value [4] was “stable”.
